Reference: patent US10813894B2, “Methods of inhibiting pain” (The Regents of the University of California, priority 2015, dated 2020)
Entries after “also recorded” stand apart in the source; their conditions may differ.

How the values were obtained:
[1] = molecular target: T1, sEH (Homo sapiens, UniProt P34913); assay: Inhibition of sEH, assay not specified; assay type: biochemical
T1 sequence (P34913 1-555): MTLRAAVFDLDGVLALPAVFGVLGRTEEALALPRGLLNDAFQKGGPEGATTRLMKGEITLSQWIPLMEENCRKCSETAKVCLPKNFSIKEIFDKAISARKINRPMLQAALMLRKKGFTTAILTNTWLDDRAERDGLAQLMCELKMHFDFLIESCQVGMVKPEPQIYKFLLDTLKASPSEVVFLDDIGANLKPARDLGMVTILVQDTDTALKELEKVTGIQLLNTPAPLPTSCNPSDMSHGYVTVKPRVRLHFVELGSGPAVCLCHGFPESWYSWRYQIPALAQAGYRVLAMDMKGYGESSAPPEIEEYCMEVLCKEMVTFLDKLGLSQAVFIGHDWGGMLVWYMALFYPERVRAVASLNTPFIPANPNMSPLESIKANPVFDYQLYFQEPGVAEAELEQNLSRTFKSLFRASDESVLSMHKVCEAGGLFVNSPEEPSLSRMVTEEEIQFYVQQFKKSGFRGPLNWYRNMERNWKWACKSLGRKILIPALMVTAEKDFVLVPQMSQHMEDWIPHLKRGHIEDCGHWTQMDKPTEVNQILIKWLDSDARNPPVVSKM
Description: “Soluble epoxide hydrolase” (“sEH”) is an epoxide hydrolase which in endothelial and smooth muscle cells converts EETs to dihydroxy derivatives called dihydroxyeicosatrienoic acids (“DHETs”). The cloning and sequence of the murine sEH is set forth in Grant et al., J. Biol. Chem. 268(23):17628-17633 (1993). The cloning, sequence, and accession numbers of the human sEH sequence are set forth in Beetham et al., Arch. Biochem. Biophys. […] The amino acid sequence of human sEH is SEQ ID NO.:1, while the nucleic acid sequence encoding the human sEH is SEQ ID NO.:2. […] Unless otherwise specified, as used herein, the terms “soluble epoxide hydrolase” and “sEH” refer to human sEH.
Derivatives of urea are transition state mimetics that form a preferred group of sEH inhibitors. […] Any particular urea derivative or other compound can be easily tested for its ability to inhibit sEH by standard assays, such as those discussed herein. The production and testing of urea and carbamate derivatives as sEH inhibitors is set forth in detail in, for example, Morisseau et al., Proc Natl Acad Sci (USA) 96:8849-8854 (1999).
Any of a number of standard assays for determining epoxide hydrolase activity can be used to determine inhibition of sEH. […] Suitable in vitro assays are described in Zeldin et al., J Biol. Chem. 268:6402-6407 (1993). […]

[2] = test system: healthy rats; assay: Intraplantar tunicamycin (Tm) induced pain model, mechanical withdrawal; assay type: in vivo, rat
Protocol: (§1) FIGS. 7A-F illustrate that ER stress inducer tunicamycin (Tm) is rapid, intense and selective in generating pain behavior. (A) Tm is administered into the midsection of one hind paw in a volume of 10 μL (20 μg). Mechanical withdrawal of ipsi- and contralateral paws are then monitored over a period of 6 h until the ipsilateral paw measurements returned to baseline values. The withdrawal data are presented as gram force required for inducing a withdrawal reflex response. (B) Decreasing doses of Tm generated less intense allodynia which subsided faster than the highest dose. […] (D) Intraplantar Tm induced pain is reversible with sEH inhibitor (lh prior to Tm, i.p. administration) in a dose dependent manner. (E) Expectedly this pain is reversible with chemical chaperone 4-PBA. The basis for the increase above the baseline threshold in this group is not investigated.

[3] = test system: healthy rats; assay: von Frey mechanical withdrawal threshold in healthy rats; conditions: 4-PBA 40 mg/kg
Protocol: Standard nociceptive measurements were performed in all experiments. For the von Frey test an electronic rigid tip instrument was used (IITC, Woodland Hills Calif.). For the thermal nociceptive thresholds the modified Hargreaves' method was used. The baseline withdrawal thresholds before STZ administration were taken as 100% response and all mean nociceptive thresholds were converted to percentage values. Inhibitors were administered by intraperitoneal route after completely dissolving in vehicle PEG400 (1 mL/kg).

[4] = test system: type I diabetic rats; assay: STZ induced type I diabetic rat neuropathic pain model, electronic von Frey test; conditions: for Drug reduction index: combination of 4-PBA and TPPU, CompuSyn
Protocol: Data are presented as mean±SEM in all subsequent figures throughout the text.
(B) The CompuSyn software was used to construct an isobologram of the interaction. ED50 values calculated for each drug are plotted on x and y-axis respectively. […] (C) Combination index (CI) is reported as the key parameter of the synergistic interaction.
Standard nociceptive measurements were performed in all experiments. For the von Frey test an electronic rigid tip instrument was used (IITC, Woodland Hills Calif.). […] The baseline withdrawal thresholds before STZ administration were taken as 100% response and all mean nociceptive thresholds were converted to percentage values. Inhibitors were administered by intraperitoneal route after completely dissolving in vehicle PEG400 (1 mL/kg).
Results are depicted as mean±SEM. CompuSyn software package was used to quantify the synergy between drugs.

[5] = test system: healthy rats; assay: Intraplantar dimethylcelecoxib (DMCx) induced pain model; assay type: in vivo, rat
Protocol: FIGS. 9A-C illustrate that mechanistically different ER stress inducer dimethylcelecoxib (DMCx) generates a rapid and intense but sEHI and cox-2 inhibitor reversible pain phenotype. (A) DMCx is administered into the midsection of one hind paw in a volume of 10 μL (20 μg). Mechanical withdrawal of ipsi- and contralateral paws are then monitored over a period of 4 h. The withdrawal data are presented as gram force required for inducing a withdrawal reflex response. (B) Intraplantar DMCx induced pain is reversible with sEH inhibitor (1 h prior to Tm, i.p. administration) in a dose dependent manner.

[6] = test system: healthy rats; assay: Intraplantar Tm, thermal withdrawal threshold (modified Hargreaves' test); assay type: in vivo, rat
Protocol: as §1

## CCCCCCCCCCCCNC(=O)NC12CC3CC(CC(C3)C1)C2 [ADU, N-Adamantyl-N′-dodecyl urea]
[1]
  Activity on sEH: particularly high activity

## O=C(O)CCCc1ccccc1 [Compound 4-PBA, 4-phenyl butyric acid]
[2]; pre-administration i.p. 1 h prior to Tm, celecoxib 30 mg/kg
  Reversal of Tm induced sensitivity to mechanical stimuli: reversed; also recorded: reversible
[3]
  Acute mechanical withdrawal threshold in healthy rats: not antinociceptive; also recorded: does not result in change of acute mechanical withdrawal threshold
[4]; at ED50
  Drug reduction index: 2.2 fold
[4]; at ED97
  Drug reduction index: 3.9 fold
[4]; diabetic rats, i.p., 4-PBA 10-100 mg/kg, TPPU 0.01-1 mg/kg
  Allodynia / antinociception (von Frey withdrawal threshold): dose and time dependent antinociception occurs within minutes; also recorded: reduce allodynia in a dose and time dependent manner
[4]; diabetic rats, systemic delivery, highest dose
  Antinociceptive efficacy at the highest dose: full efficacy and rapid onset
[4]; type I diabetic rats, 10 mg/kg, 6 h time period
  Effect on pain-related behavior at 10 mg/kg: ineffective

## Cc1ccc(C)c(-c2cc(C(F)(F)F)nn2-c2ccc(S(N)(=O)=O)cc2)c1 [DMCx, dimethyl-celecoxib]
[5]
  Swelling after intraplantar administration: Swelling of the ipsilateral paw

## tunicamycin [Tm]
[2]; hind paw of healthy rats
  Induction of pain by intraplantar administration: induce a significant degree of pain
[2]; intraplantar Tm
  Swelling after intraplantar administration: Minimal amount of swelling
[2]; intraplantar, 20 μg, ipsilateral paw
  Mechanical withdrawal threshold after Tm: 25 % of the baseline levels
[6]
  Heat responses / thermal withdrawal threshold of the ipsilateral paw: rapid and sustained loss of heat responses; also recorded: notable increase in thermal withdrawal threshold
